# Laboratory results: US9827246B2, “Biomarkers of response to NAE inhibitors” (Millennium Pharmaceuticals, Inc., priority 2011, dated 2017)
# What was measured:
# Assay type in all cases: cell-based
# [1] = system: p21 in TP53−/− HCT-116 cells; assay: Western blots of p21
# CFPAC-1 = assay: Panel 1 cell viability screen; conditions: SMAD4 mutant
# Description: (§1) To support clinical development and identify potential biomarkers of tumor sensitivity or resistance, two large cancer cell line panels (Panel 1, N=653 (McDermott et al. (2007) PNAS 104:19936-19941); Panel 2, N=240 (O'Day et al. (2010) Fourth AACR International Conference on Molecular Diagnostics in Cancer Therapeutic Development)) were treated with MLN4924 and cell viability data (IC50, EC50, and POC—Percentage of Control) were generated.
# (§2) Panel 1 (McDermott et al., supra). The cell lines were exposed to three MLN4924 concentrations (20 nM, 200 nM, and 2 μM) for 72 hours. Viability, i.e., cell number, was quantified by measuring fluorescence of a cell-permeant nucleic acid stain. Mean of triplicate values for each sample were taken and compared to DMSO control to calculate percentage of control. In the results, control or no activity value is given a value of about 1, sensitivity is indicated by a value less than 1, with 0 as death of the entire cell population and resistance indicated by a value greater than 1. A continuum of viability values was obtained for each concentration, so some values were selected as cut-offs for final determination of sensitivity or resistance. For example, median POC values of less than the median value of all POC's recorded in the panel (<0.34) indicated sensitivity, values of 0.34 to 0.75 indicated borderline sensitivity, values greater than the 3rd quartile of all POC's in the panel (>0.75) insensitivity or resistance. […] Final judgment of cell line as sensitive, insensitive or resistant was determined by its viability at 2 μM.
# HT29 = assay: Panel 1 cell viability screen; conditions: HT-29; SMAD4 mutant
# Description: as §1, §2
# BxPC-3 = assay: Panel 1 cell viability screen; conditions: SMAD4 mutant
# Description: as §1, §2
# SW620 = assay: Panel 1 cell viability screen; conditions: SMAD4 mutant
# Description: as §1, §2
# MKN45 = assay: Panel 1 cell viability screen; conditions: SMAD4 mutant
# Description: as §1, §2
# SW 1463 = assay: Panel 1 cell viability screen; conditions: SW1463; FBXW7 mutant
# Description: as §1, §2
# PANC-08-13 = assay: Panel 1 cell viability screen; conditions: SMAD4 mutant
# Description: as §1, §2
# CAPAN-1 = assay: Panel 1 cell viability screen; conditions: SMAD4 mutant
# Description: as §1, §2
# AsPC-1 = assay: Panel 1 cell viability screen; conditions: FBXW7 mutant
# Description: as §1, §2
# MDA-MB-231 = assay: Panel 1 cell viability screen; conditions: NF2 mutant
# Description: as §1, §2
# S-117 = assay: Panel 1 cell viability screen; conditions: NF2 mutant
# Description: as §1, §2
# COCM1 = assay: Panel 1 cell viability screen; conditions: CoCM-1; SMAD4 mutant
# Description: as §1, §2
# RCM-1 = assay: Panel 1 cell viability screen; conditions: FBXW7 mutant
# Description: as §1, §2
# UMC-11 = assay: Panel 1 cell viability screen; conditions: SMAD4 mutant
# Description: as §1, §2
# MKN1 = assay: Panel 1 cell viability screen; conditions: FBXW7 mutant
# Description: as §1, §2
# COLO-678 = assay: Panel 1 cell viability screen; conditions: SMAD4 mutant
# Description: as §1, §2
# SK-OV-3 = assay: Panel 2 high-content cell screen; conditions: Homo sapiens, 72 h, cell number
# Description: as §1
# (§3) Panel 2 (Ricerca Biosciences, Inc., Bothell, Wash.). MLN4924 was added in half-log dilutions for 10 concentrations and treated for 72 hours. High-content cell screening by fluorescence microscopy included image analysis to generate several types of data. Results included EC50 values (after measurement of cell numbers, the EC50 concentration was calculated from the inflection point of a curve of percent of control (POC) against log of MLN4924 concentration), IC50 values (from the POC-log MLN4924 plot, IC50 is the concentration at 50% maximal possible response), apoptosis (measurement of activation of caspase 3 plotted against log of MLN4924 concentration, determined as the concentration for >5 fold induction), and mitotic activity (determined by measuring the fold increase of phospho-histone 3). A comparison of EC50 to IC50 (FIG. 3) allowed assignment of cell lines to sensitive, insensitive or resistant. Final identification of a cell line as sensitive or resistant was based on the EC50 values. The cutoff for sensitivity is a median EC50 of less than the median value of all POC's recorded in the panel (<0.36), borderline sensitivity was associated with median EC50 of 0.36 to 1.67 and insensitive or resistant cell lines were identified by EC50 greater than the 3rd quartile of all POC's in the panel (>1.67).
# NCI-H520 = assay: Panel 2 high-content cell screen; conditions: Homo sapiens, 72 h, cell number
# Description: as §1, §3
# SW 1116 = assay: Panel 2 high-content cell screen; conditions: Homo sapiens, 72 h, cell number
# Description: as §1, §3
smiles,measurement,setting,value
"NS(=O)(=O)OC[C@@H]1C[C@@H](n2ccc3c(N[C@H]4CCc5ccccc54)ncnc32)C[C@@H]1O [MLN4924, ((1S,2S,4R)-4-{4-[(1S)-2,3-dihydro-1H-inden-1-ylamino]-7H-pyrrolo[2,3-d]pyrimidin-7-yl}-2-hydroxycyclopentyl)methyl sulphamate]",p21 (Western blots),[1],still up-regulated
same,Phenotype,CFPAC-1,sensitive?
same,Phenotype,HT29,insensitive
same,Phenotype,BxPC-3,insensitive
same,Phenotype,SW620,insensitive
same,Phenotype,MKN45,insensitive
same,Phenotype,SW 1463,resistant
same,Phenotype,PANC-08-13,resistant
same,Phenotype,CAPAN-1,sensitive?
same,Phenotype,AsPC-1,resistant
same,Phenotype,MDA-MB-231,insensitive
same,Phenotype,S-117,resistant
same,Phenotype,COCM1,resistant
same,Phenotype,RCM-1,resistant
same,Phenotype,UMC-11,insensitive
same,Phenotype,MKN1,insensitive
same,Phenotype,COLO-678,resistant
same,EC50,SK-OV-3,≥ 10 µM
same,EC50,NCI-H520,0.261 µM
same,EC50,SW 1116,≥ 10 µM
